ChEMBL document CHEMBL4842380, “Enhanced Properties of a Benzimidazole Benzylpyrazole Lysine Demethylase Inhibitor: Mechanism-of-Action, Binding Site Analysis, and Activity in Cellular Models of Prostate Cancer” (J Med Chem, 2021)
Active and inactive are the calls of the source. No cut-off for these calls is given here.

What was measured:
[1] = biological target: T1, Lysine-specific demethylase 4E (Homo sapiens, UniProt B2RXH2); test: Inhibition of N-terminal His6-tagged KDM4E (1 to 337 residues) (unknown origin) expressed in Escherichia coli BL21 (DE3)-R3 preincubated for 10 mins followed by substrate addition by fluorescence based FDH-coupled assay
T1 sequence (B2RXH2 whole entry): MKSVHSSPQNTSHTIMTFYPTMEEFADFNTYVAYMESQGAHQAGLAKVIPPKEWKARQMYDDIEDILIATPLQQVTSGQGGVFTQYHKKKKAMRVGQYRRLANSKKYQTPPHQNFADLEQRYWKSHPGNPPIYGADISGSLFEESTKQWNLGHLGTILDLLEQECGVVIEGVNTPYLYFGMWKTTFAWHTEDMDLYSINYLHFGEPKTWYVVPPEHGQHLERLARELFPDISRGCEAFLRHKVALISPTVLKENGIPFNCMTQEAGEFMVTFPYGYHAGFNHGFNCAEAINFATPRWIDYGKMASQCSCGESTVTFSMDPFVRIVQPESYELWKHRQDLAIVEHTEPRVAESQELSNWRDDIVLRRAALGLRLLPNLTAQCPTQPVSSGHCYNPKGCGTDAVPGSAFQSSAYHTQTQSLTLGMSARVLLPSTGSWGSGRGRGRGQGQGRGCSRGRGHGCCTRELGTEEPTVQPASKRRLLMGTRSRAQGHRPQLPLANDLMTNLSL

PC-3 [2] = test: Cytotoxicity against human PC-3 cells assessed as remaining cell viability after 48 hrs by alamar blue assay; type: functional
LNCaP [3] = test: Inhibition of KDM4 in human LNCaP cells assessed as decrease in PSA gene expression at 25 uM incubated for 48 hrs in presence of DHT by qPCR analysis; type: cell-based
DU-145 [4] = test: Inhibition of KDM4 in human DU-145 cells assessed as increase in H3K9me3 level at 25 uM incubated for 48 hrs by Nu-ELISA; type: cell-based
PC-3 [5] = test: Cytotoxicity against human PC-3 cells assessed as growth inhibition after 48 hrs by alamar blue assay; type: functional
LNCaP [6] = test: Inhibition of KDM4 in human LNCaP cells assessed as increase in H3K9me3 level at 25 uM incubated for 48 hrs by Nu-ELISA; type: cell-based
LNCaP [7] = test: Inhibition of KDM4 in human LNCaP cells assessed as increase in H3K9me3 abundance at 25 uM incubated for 48 hrs by Western blot analysis; type: cell-based
DU-145 [8] = test: Cytotoxicity against human DU-145 cells assessed as growth inhibition after 48 hrs by alamar blue assay; type: functional
LNCaP [9] = test: Inhibition of KDM4 in human LNCaP cells assessed as decrease in luciferase activity at 25 uM incubated for 48 hrs by luciferase based reporter gene assay; type: cell-based
LNCaP [10] = test: Inhibition of KDM4 in human LNCaP cells assessed as decrease in PSA gene expression at 25 uM incubated for 48 hrs by qPCR analysis; type: cell-based
LNCaP [11] = test: Cytotoxicity against human LnCaP cells assessed as growth inhibition after 48 hrs by alamar blue assay; type: functional
DU-145 [12] = test: Cytotoxicity against human DU-145 cells assessed as remaining cell viability after 48 hrs by alamar blue assay; type: functional
[13] = Cytotoxicity against human LnCaP cells assessed as remaining cell viability after 48 hrs by alamar blue assay; type: functional, Prostate cell
[14] = Cytotoxicity against human prostate epithelial cells assessed as remaining cell viability after 48 hrs by alamar blue assay; type: functional
LNCaP [15] = test: Inhibition of KDM4 in human LNCaP cells assessed as decrease in luciferase activity at 50 uM incubated for 48 hrs by luciferase based reporter gene assay; type: cell-based
LNCaP [16] = test: Inhibition of KDM4 in human LNCaP cells assessed as decrease in PSA gene expression at 100 uM incubated for 48 hrs by qPCR analysis; type: cell-based
[17] = biological target: T2, Lysine-specific demethylase 4E (Homo sapiens) (UniProt B2RXH2); test: Inhibition of N-terminal His6-tagged KDM4E (1 to 337 residues) (unknown origin) expressed in Escherichia coli BL21 (DE3)-R3 at highest concentration preincubated for 10 mins followed by substrate addition by fluorescence based FDH-coupled assay
T2 sequence (whole entry): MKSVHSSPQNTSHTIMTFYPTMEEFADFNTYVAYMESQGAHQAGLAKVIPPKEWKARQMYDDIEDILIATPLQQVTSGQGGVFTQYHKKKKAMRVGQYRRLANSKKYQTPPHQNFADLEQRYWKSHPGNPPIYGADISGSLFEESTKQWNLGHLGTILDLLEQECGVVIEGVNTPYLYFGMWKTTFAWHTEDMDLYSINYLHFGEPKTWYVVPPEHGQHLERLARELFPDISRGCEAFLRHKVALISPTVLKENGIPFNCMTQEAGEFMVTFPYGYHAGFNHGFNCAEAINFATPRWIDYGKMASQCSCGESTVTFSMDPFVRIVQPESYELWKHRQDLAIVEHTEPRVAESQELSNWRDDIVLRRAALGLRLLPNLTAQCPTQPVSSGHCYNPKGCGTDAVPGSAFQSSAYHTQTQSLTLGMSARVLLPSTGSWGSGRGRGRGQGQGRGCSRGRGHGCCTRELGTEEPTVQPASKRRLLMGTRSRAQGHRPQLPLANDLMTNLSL

[18] = compound: O=C(O)c1ccnc(C(=O)O)c1; test: Inhibition of N-terminal His6-tagged KDM4E (1 to 337 residues) (unknown origin) expressed in Escherichia coli BL21 (DE3)-R3 assessed as Km at 1 uM in presence of alpha-KG by Michaelis-Menten analysis (reference value: 22 uM); details: Homo sapiens
[19] = compound: Cc1nn(-c2nc3ccccc3[nH]2)c(O)c1-c1ccccc1; test: Inhibition of N-terminal His6-tagged KDM4E (1 to 337 residues) (unknown origin) expressed in Escherichia coli BL21 (DE3)-R3 assessed as Km at 5 uM in presence of H3K9me3 by Michaelis-Menten analysis (reference value: 11 uM); details: Homo sapiens
[20] = compound: Cc1nn(-c2nc3ccccc3[nH]2)c(O)c1-c1ccccc1; test: Inhibition of N-terminal His6-tagged KDM4E (1 to 337 residues) (unknown origin) expressed in Escherichia coli BL21 (DE3)-R3 assessed as Vmax at 5 uM in presence of alpha-KG by Michaelis-Menten analysis (reference value: 35 /s); details: Homo sapiens
[21] = compound: Cc1nn(-c2nc3ccccc3[nH]2)c(O)c1-c1ccccc1; test: Inhibition of N-terminal His6-tagged KDM4E (1 to 337 residues) (unknown origin) expressed in Escherichia coli BL21 (DE3)-R3 assessed as Vmax at 1 uM in presence of H3K9me3 by Michaelis-Menten analysis (reference value: 21 /s); details: Homo sapiens
[22] = compound: Cc1nn(-c2nc3ccccc3[nH]2)c(O)c1-c1ccccc1; test: Inhibition of N-terminal His6-tagged KDM4E (1 to 337 residues) (unknown origin) expressed in Escherichia coli BL21 (DE3)-R3 assessed as Vmax at 1 uM in presence of alpha-KG by Michaelis-Menten analysis (reference value: 35 /s); details: Homo sapiens
[23] = compound: O=C(O)c1ccnc(C(=O)O)c1; test: Inhibition of N-terminal His6-tagged KDM4E (1 to 337 residues) (unknown origin) expressed in Escherichia coli BL21 (DE3)-R3 assessed as Vmax at 1 uM in presence of alpha-KG by Michaelis-Menten analysis (reference value: 42 /s); details: Homo sapiens
[24] = compound: Cc1nn(-c2nc3ccccc3[nH]2)c(O)c1-c1ccccc1; test: Inhibition of N-terminal His6-tagged KDM4E (1 to 337 residues) (unknown origin) expressed in Escherichia coli BL21 (DE3)-R3 assessed as Vmax at 5 uM in presence of H3K9me3 by Michaelis-Menten analysis (reference value: 21 /s); details: Homo sapiens
[25] = compound: Cc1nn(-c2nc3ccccc3[nH]2)c(O)c1-c1ccccc1; test: Inhibition of N-terminal His6-tagged KDM4E (1 to 337 residues) (unknown origin) expressed in Escherichia coli BL21 (DE3)-R3 assessed as Km at 10 uM in presence of alpha-KG by Michaelis-Menten analysis (reference value: 12 uM); details: Homo sapiens
[26] = compound: Cc1nn(-c2nc3ccccc3[nH]2)c(O)c1-c1ccccc1; test: Inhibition of N-terminal His6-tagged KDM4E (1 to 337 residues) (unknown origin) expressed in Escherichia coli BL21 (DE3)-R3 assessed as Km at 1 uM in presence of H3K9me3 by Michaelis-Menten analysis (reference value: 11 uM); details: Homo sapiens
[27] = compound: Cc1nn(-c2nc3ccccc3[nH]2)c(O)c1-c1ccccc1; test: Inhibition of N-terminal His6-tagged KDM4E (1 to 337 residues) (unknown origin) expressed in Escherichia coli BL21 (DE3)-R3 assessed as Km at 1 uM in presence of alpha-KG by Michaelis-Menten analysis (reference value: 12 uM); details: Homo sapiens
[28] = compound: Cc1nn(-c2nc3ccccc3[nH]2)c(O)c1-c1ccccc1; test: Inhibition of N-terminal His6-tagged KDM4E (1 to 337 residues) (unknown origin) expressed in Escherichia coli BL21 (DE3)-R3 assessed as Km at 5 uM in presence of alpha-KG by Michaelis-Menten analysis (reference value: 12 uM); details: Homo sapiens
[29] = compound: Cc1nn(-c2nc3ccccc3[nH]2)c(O)c1-c1ccccc1; test: Inhibition of N-terminal His6-tagged KDM4E (1 to 337 residues) (unknown origin) expressed in Escherichia coli BL21 (DE3)-R3 assessed as Vmax at 10 uM in presence of alpha-KG by Michaelis-Menten analysis (reference value: 35 /s); details: Homo sapiens
[30] = compound: Cc1nn(-c2nc3ccccc3[nH]2)c(O)c1-c1ccccc1; test: Inhibition of N-terminal His6-tagged KDM4E (1 to 337 residues) (unknown origin) expressed in Escherichia coli BL21 (DE3)-R3 assessed as Vmax at 10 uM in presence of H3K9me3 by Michaelis-Menten analysis (reference value: 21 /s); details: Homo sapiens
[31] = compound: Cc1nn(-c2nc3ccccc3[nH]2)c(O)c1-c1ccccc1; test: Inhibition of N-terminal His6-tagged KDM4E (1 to 337 residues) (unknown origin) expressed in Escherichia coli BL21 (DE3)-R3 assessed as Km at 10 uM in presence of H3K9me3 by Michaelis-Menten analysis (reference value: 11 uM); details: Homo sapiens

CCCc1c(C)nn(-c2nc3ccccc3[nH]2)c1O
IC50 [1]: 24 µM

Cc1nn(-c2nc3ccccc3[nH]2)c(O)c1-c1ccccc1
Activity (PC-3 [2]): 27% | inhibition (LNCaP [3]): Active | inhibition (DU-145 [4]): Active | GI50 (PC-3 [5]): > 50 µM | inhibition (LNCaP [6]): Active | inhibition (LNCaP [7]): Active | GI50 (DU-145 [8]): 8 µM | inhibition (LNCaP [9]): Active | inhibition (LNCaP [10]): Active | GI50 (LNCaP [11]): 8 µM | Activity (DU-145 [12]): 0% | Activity [13]: 1% | Activity [14]: 2%

C=CCc1c(C)nn(-c2ccccn2)c1O
IC50 [1]: 191 µM

C=CCc1c(C)nn(-c2nc3ccccc3[nH]2)c1O
IC50 [1]: 24 µM

O=C(O)Cc1cc(O)n(-c2nc3ccccc3[nH]2)n1
IC50 [1]: 347 µM

CN(C)CCCNC(=O)c1ccc(-c2cc(O)c3ncccc3c2)cc1
inhibition (DU-145 [4]): Active | inhibition (LNCaP [15]): Active | inhibition (LNCaP [16]): inactive | inhibition (LNCaP [6]): Active | GI50 (LNCaP [11]): 53 µM | Activity [13]: 1%

Cc1nn(-c2ccccn2)c(O)c1Cc1ccccc1
IC50 [1]: 57 µM

Cc1nn(-c2nc3ccccc3[nH]2)c(O)c1Cc1ccccc1
IC50 [1]: 27 µM

CNCCCc1c(C)nn(-c2nc3ccccc3[nH]2)c1O
IC50 [1]: 9 µM

Cc1cc(O)n(-c2nc3ccccc3[nH]2)n1
IC50 [1]: 76 µM

C#CCc1c(C)nn(-c2nc3ccccc3[nH]2)c1O
IC50 [1]: 5 µM

Brc1cnn(-c2nc3ccccc3[nH]2)c1
inhibition [17]: inactive

Cc1nn(-c2nc3ccc(C(=O)O)cc3[nH]2)c(O)c1-c1ccccc1
IC50 [1]: 19 µM

COC(=O)CCc1c(C)nn(-c2nc3ccccc3[nH]2)c1O
IC50 [1]: 72 µM

Cc1nn(-c2nc3ccccc3[nH]2)c(O)c1CCC(=O)N(C)C
IC50 [1]: 16 µM

B1: Lysine-specific demethylase 4E (Homo sapiens), B2RXH2 (protein)
chain: MKSVHSSPQNTSHTIMTFYPTMEEFADFNTYVAYMESQGAHQAGLAKVIPPKEWKARQMYDDIEDILIATPLQQVTSGQGGVFTQYHKKKKAMRVGQYRRLANSKKYQTPPHQNFADLEQRYWKSHPGNPPIYGADISGSLFEESTKQWNLGHLGTILDLLEQECGVVIEGVNTPYLYFGMWKTTFAWHTEDMDLYSINYLHFGEPKTWYVVPPEHGQHLERLARELFPDISRGCEAFLRHKVALISPTVLKENGIPFNCMTQEAGEFMVTFPYGYHAGFNHGFNCAEAINFATPRWIDYGKMASQCSCGESTVTFSMDPFVRIVQPESYELWKHRQDLAIVEHTEPRVAESQELSNWRDDIVLRRAALGLRLLPNLTAQCPTQPVSSGHCYNPKGCGTDAVPGSAFQSSAYHTQTQSLTLGMSARVLLPSTGSWGSGRGRGRGQGQGRGCSRGRGHGCCTRELGTEEPTVQPASKRRLLMGTRSRAQGHRPQLPLANDLMTNLSL
Km [18]: 69 µM | Km [19]: 14 µM | Vmax [20]: 24 s⁻¹ | Vmax [21]: 21 s⁻¹ | Vmax [22]: 31 s⁻¹ | Vmax [23]: 37 s⁻¹ | Vmax [24]: 14 s⁻¹ | Km [25]: 2 µM | Km [26]: 14 µM | Km [27]: 13 µM | Km [28]: 8 µM | Vmax [29]: 12 s⁻¹ | Vmax [30]: 5 s⁻¹ | Km [31]: 19 µM
